# Source: patent US7906133B2, “Optimized dosing for drug coated stents” (Boston Scientific Scimed, Inc., priority 2002, dated 2011)
# What was measured:
# [1] = system: healthy porcine arteries; conditions: dosing of approximately 1.0 micrograms/mm^2 in a polymer coating
# Excerpt: Paclitaxel coated metallic stents of various doses were implanted into healthy porcine arteries to determine the effect of dosage on biological response. Dosages used were approximately 4.0, 2.0, 1.0, and 0.6 micrograms per square millimeter of the stent surface area, corresponding to approximate total dosages of 345, 175, 85, and 50 micrograms per stent. The paclitaxel was contained within a styrene-isobutylene based block copolymer applied to the stent struts.
# [2] = biological response as a function of release rate from paclitaxel coated stent (FIGS. 2a-2c); assay type: in vivo; conditions: dose 1.0 micrograms/mm^2
# Excerpt: FIG. 2 and FIGS. 2a-2c illustrate the difference in biological response resulting from the difference in release rate from a paclitaxel coated stent.
# (§1) Using the 1.0 micrograms/mm^2 dose as an exemplary embodiment, the effects of release rate were investigated. Metallic stents were coated with paclitaxel in a styrene-isobutylene based block copolymer carrier with the weight percent of paclitaxel in the carrier varying from approximately 8.8 to about 35%. The dose of drug applied to the stents was kept at 1.0 micrograms/mm^2, and the total drug dose was held constant by varying total coating weight.
# [3] = in vitro release studies involving an aqueous environment (FIG. 2); assay type: physicochemical; conditions: dose 1.0 micrograms/mm^2
# Excerpt: as §1
# [4] = weight fraction less than about 35% in polymer carrier
smiles,measurement,setting,value
CC(=O)O[C@H]1C(=O)[C@@]2(C)[C@H]([C@H](OC(=O)c3ccccc3)[C@]3(O)C[C@H](OC(=O)[C@H](O)[C@@H](NC(=O)c4ccccc4)c4ccccc4)C(C)=C1C3(C)C)[C@]1(OC(C)=O)CO[C@@H]1C[C@@H]2O [paclitaxel],safety and efficacy,[1],superior safety and efficacy
same,fibrin accumulation,[2]; fastest release rate (FIG. 2a),noticeable fibrin accumulation
same,fibrin accumulation,[2]; slower release rates (FIGS. 2b and 2c),did not result in this effect
same,paclitaxel released within two days,[3]; 8.8% weight fraction in styrene-isobutylene based block copolymer carrier,about 2 micrograms
same,paclitaxel released within two days,[3]; 35% weight fraction in styrene-isobutylene based block copolymer carrier,approximately 45 micrograms
same,release profile over time,[3]; all curves in FIG. 2 (weight fractions 8.8 to 35%),"relatively rapid release rate over the first few days, followed by a slower, sustained release over up to about two weeks"
same,paclitaxel released within ten days,[3]; [4],less than 60 micrograms
same,paclitaxel released within two days,[3]; [4],less than 45 micrograms
